Measured values taken from patent US20240238425A1, “HSD17B13 Inhibitors and/or Degraders” (Pfizer Inc., priority 2022, published 2024).
Counter-ions that a name gives are not always drawn.

System: HiBiT-HSD17β13 fusion protein (N-terminal HiBiT-tagged HSD17β13 isoform D) in Huh7 HiBiT-HSD17β13 OE cells
Test: Whole-cell Huh7-HSD17B13 HiBiT assay (degrader potency and maximal efficacy, luminescence readout)
Format: cell-based, human
Settings: 24 hour incubation, geometric mean, * = geometric mean for all forms tested (parent and salt forms); for DC50: read-out: Huh7_HIBIT-HSD17β13_DC50 GMean DC50; for Huh7_HIBIT-HSD17β13_DC50 GMean Asymptote Maximum: max. concentration 1 μM
Outline: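 Luminescence from lytic HiBiT detection tracked residual HiBiT-HSD17β13 (isoform D, N-terminal tag) in a stable Huh7 overexpressing clone after 24 h compound treatment at 37° C, 11 concentrations up to 1 μM final. Percent effect used DMSO (zero) and parental Huh7 (high) wells; four-parameter fit gave 50% degradation; viability checked by CellTiter-Glo.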

Row | SMILES | DC50 [nM] | Huh7_HIBIT-HSD17β13_DC50 GMean Asymptote Maximum [%]
1 | Cn1c(=O)n(C2CCC(=O)NC2=O)c2cccc(CN3CCN(c4ccc5cn([C@H]6CC[C@H](CNC(=O)c7cc(F)c(O)c(F)c7F)CC6)nc5c4)CC3)c21 (mixture of isomers) [Example 52, N-{[(1r,4r)-4-{6-[4-({1-[(3RS)-2,6-dioxopiperidin-3-yl]-3-methyl-2-oxo-2,3-dihydro-1H-benzimidazol-4-yl}methyl)piperazin-1-yl]-2H-indazol-2-yl}cyclohexyl]methyl}-2,3,5-trifluoro-4-hydroxybenzamide, trifluoroacetate salt] | 1.6 | 80
2 | Cn1c(=O)n(C2CCC(=O)NC2=O)c2ccc(CCN3CCN(c4ccc(-c5noc([C@]67CC[C@](CNC(=O)c8cc(F)c(O)c(F)c8F)(CC6)CC7)n5)nn4)CC3)cc21 (mixture of isomers) [Example 55, N-{[4-(3-{6-[4-(2-{1-[(3RS)-2,6-dioxopiperidin-3-yl]-3-methyl-2-oxo-2,3-dihydro-1H-benzimidazol-5-yl}ethyl)piperazin-1-yl]pyridazin-3-yl}-1,2,4-oxadiazol-5-yl)bicyclo[2.2.2]octan-1-yl]methyl}-2,3,5-trifluoro-4-hydroxybenzamide, trifluoroacetate salt] | 0.49 | 82
3 | Cn1c(=O)n(C2CCC(=O)NC2=O)c2cccc(CCN3CCN(c4ccc5cn([C@H]6CC[C@H](CNC(=O)c7cc(F)c(O)c(F)c7F)CC6)nc5c4)CC3)c21 (mixture of isomers) [Example 56, N-{[(1r,4r)-4-{6-[4-(2-{1-[(3RS)-2,6-dioxopiperidin-3-yl]-3-methyl-2-oxo-2,3-dihydro-1H-benzimidazol-4-yl}ethyl)piperazin-1-yl]-2H-indazol-2-yl}cyclohexyl]methyl}-2,3,5-trifluoro-4-hydroxybenzamide, trifluoroacetate salt] | 0.64 | 82
4 | Cn1c(=O)n(C2CCC(=O)NC2=O)c2ccc(CCN3CCN(c4nccc(-c5nc([C@]67CC[C@](CNC(=O)c8cc(F)c(O)c(F)c8F)(CC6)CC7)no5)n4)CC3)cc21 (mixture of isomers) [Example 60, N-{[4-(5-{2-[4-(2-{1-[(3RS)-2,6-dioxopiperidin-3-yl]-3-methyl-2-oxo-2,3-dihydro-1H-benzimidazol-5-yl}ethyl)piperazin-1-yl]pyrimidin-4-yl}-1,2,4-oxadiazol-3-yl)bicyclo[2.2.2]octan-1-yl]methyl}-2,3,5-trifluoro-4-hydroxybenzamide, trifluoroacetate salt] | 0.65 | 78
5 | Cn1c(=O)n(C2CCC(=O)NC2=O)c2ccc(CCN3CCC(Cc4ccc5cn([C@H]6CC[C@H](CNC(=O)c7cc(F)c(O)c(F)c7F)CC6)nc5c4)C(F)(F)C3)cc21 (mixture of isomers) [Example 64, N-{[(1r,4r)-4-(6-{[1-(2-{1-[(3RS)-2,6-dioxopiperidin-3-yl]-3-methyl-2-oxo-2,3-dihydro-1H-benzimidazol-5-yl}ethyl)-3,3-difluoropiperidin-4-yl]methyl}-2H-indazol-2-yl)cyclohexyl]methyl}-2,3,5-trifluoro-4-hydroxybenzamide, trifluoroacetate salt] | 0.51 | 85
6 | Cn1c(=O)n(C2CCC(=O)NC2=O)c2ccc(CCCN3CC(F)(F)CC4(CCN(c5ccc6cn([C@H]7CC[C@H](CNC(=O)c8cc(F)c(O)c(F)c8F)CC7)nc6c5)C4=O)C3)cc21 (mixture of isomers) [Example 65, N-{[(1r,4r)-4-{6-[7-(3-{1-[(3RS)-2,6-dioxopiperidin-3-yl]-3-methyl-2-oxo-2,3-dihydro-1H-benzimidazol-5-yl}propyl)-9,9-difluoro-1-oxo-2,7-diazaspiro[4.5]decan-2-yl]-2H-indazol-2-yl}cyclohexyl]methyl}-2,3,5-trifluoro-4-hydroxybenzamide, trifluoroacetate salt] | 3.8 | 81
7 | Cn1c(=O)n(C2CCC(=O)NC2=O)c2ccc(CCCN3CCN(c4ccc(-c5nc([C@]67CC[C@](CNC(=O)c8cc(F)c(O)c(F)c8F)(CC6)CC7)no5)nn4)CC3)cc21 (mixture of isomers) [Example 66, N-{[4-(5-{6-[4-(3-{1-[(3RS)-2,6-dioxopiperidin-3-yl]-3-methyl-2-oxo-2,3-dihydro-1H-benzimidazol-5-yl}propyl)piperazin-1-yl]pyridazin-3-yl}-1,2,4-oxadiazol-3-yl)bicyclo[2.2.2]octan-1-yl]methyl}-2,3,5-trifluoro-4-hydroxybenzamide, trifluoroacetate salt] | 0.32 | 75
8 | Cn1c(=O)n(C2CCC(=O)NC2=O)c2ccc(CCCN3CCN(c4cnc(-c5nc([C@]67CC[C@](CNC(=O)c8cc(F)c(O)c(F)c8F)(CC6)CC7)no5)cn4)CC3)cc21 (mixture of isomers) [Example 69, N-{[4-(5-{5-[4-(3-{1-[(3RS)-2,6-dioxopiperidin-3-yl]-3-methyl-2-oxo-2,3-dihydro-1H-benzimidazol-5-yl}propyl)piperazin-1-yl]pyrazin-2-yl}-1,2,4-oxadiazol-3-yl)bicyclo[2.2.2]octan-1-yl]methyl}-2,3,5-trifluoro-4-hydroxybenzamide, trifluoroacetate salt] | 0.16 | 88

More lines, in order of falling DC50, values ahead:

Row | DC50 [nM] | SMILES | Huh7_HIBIT-HSD17β13_DC50 GMean Asymptote Maximum [%]
9 | 0.23 | Cn1c(=O)n(C2CCC(=O)NC2=O)c2ccc(CCN3CCOC4(CCN(c5ccc6cn([C@H]7CC[C@H](CNC(=O)c8cc(F)c(O)c(F)c8F)CC7)nc6c5)CC4)C3)cc21 (mixture of isomers) [Example 74, N-{[(1r,4r)-4-{6-[4-(2-{1-[(3RS)-2,6-dioxopiperidin-3-yl]-3-methyl-2-oxo-2,3-dihydro-1H-benzimidazol-5-yl}ethyl)-1-oxa-4,9-diazaspiro[5.5]undecan-9-yl]-2H-indazol-2-yl}cyclohexyl]methyl}-2,3,5-trifluoro-4-hydroxybenzamide, trifluoroacetate salt] | 87
10 | 0.19 | Cn1c(=O)n(C2CCC(=O)NC2=O)c2ccc(CCCN3CCOC4(CCN(c5ccc6cn([C@H]7CC[C@H](CNC(=O)c8cc(F)c(O)c(F)c8F)CC7)nc6c5)CC4)C3)cc21 (mixture of isomers) [Example 75, N-{[(1r,4r)-4-{6-[4-(3-{1-[(3RS)-2,6-dioxopiperidin-3-yl]-3-methyl-2-oxo-2,3-dihydro-1H-benzimidazol-5-yl}propyl)-1-oxa-4,9-diazaspiro[5.5]undecan-9-yl]-2H-indazol-2-yl}cyclohexyl]methyl}-2,3,5-trifluoro-4-hydroxybenzamide, trifluoroacetate salt] | 88
11 | 0.18 | Cn1c(=O)n(C2CCC(=O)NC2=O)c2ccc(CCCN3CCN(c4ncc(-c5nc([C@]67CC[C@](CNC(=O)c8cc(F)c(O)c(F)c8F)(CC6)CC7)no5)cn4)CC3)cc21 (mixture of isomers) [Example 67, N-{[4-(5-{2-[4-(3-{1-[(3RS)-2,6-dioxopiperidin-3-yl]-3-methyl-2-oxo-2,3-dihydro-1H-benzimidazol-5-yl}propyl)piperazin-1-yl]pyrimidin-5-yl}-1,2,4-oxadiazol-3-yl)bicyclo[2.2.2]octan-1-yl]methyl}-2,3,5-trifluoro-4-hydroxybenzamide, trifluoroacetate salt] | 89
